According to PubChem BioAssay AID1963826 (Molecular Pharmacology Branch, DTP, NCI, 2024):

Test system: 926638-142-R-J1-PDC complex spheroid viability
Assay: Anticancer human tumor 926638-142-R-J1-PDC patient-derived endometrial carcinoma cell line growth inhibition [POLQ]
Conditions: for IC50: curve of first compound; for viability, T/C: stronger effect = lower value
Procedure: Multicellular complex tumor spheroid response to Polymerase (POL) inhibitors (novobiocin, ART-558, RP6685) in combination with a variety of drugs and investigational agents in selected tumor cell lines
The POL inhibitors (novobiocin, ART-558, and RP6685) were evaluated both individually and in combination with standard of care and investigational anticancer small molecules within a complex spheroid model of solid tumors. . Complex spheroids include a stromal component modeled by human endothelial cells (HUVEC) and fibroblasts modeled by human mesenchymal stem cells (MSCs). The concentration ranges selected for each drug and investigational agent were based upon clinically achievable concentrations if the clinical Cmax of the agent was known.
Compounds. The drugs and investigational agents: novobiocin (NSC847541), ART-558 (NSC835418), RP-6685 (NSC848927), peposertib (NSC802822), ceralasertib (NSC780249), elimusertib (NSC800525), camonsertib (NSC841442), AZD-1390 (NSC803789), olaparib (NSC753686), talazoparib (NSC767125), rucaparib (NSC756644), sotorasib (NSC818433), MRTX-1133 (NSC836407), SN-38 (NSC673596), topotecan (NSC609699), epotoside (NSC141540), doxorubicin (NSC123127), gemcitabine (NSC613327), 5-fluorouracil (NSC19893), paclitaxel (NSC125973), vemurafenib (NSC761431), MSA-2 (NSC828583), SN-011 (NSC837082), adavosertib (NSC754352), prexasertib (NSC758257), carboplatin (NSC241240) and oxaliplatin (NSC266046), were obtained from the National Cancer Institute (NCI) Developmental Therapeutics Program Chemical Repository (21). The FDA-approved anticancer drug set is available from the Developmental Therapeutics Program at https://dtp.cancer.gov/organization/dscb/obtaining/. […] The stock solutions were prepared in dimethyl sulfoxide (DMSO, Sigma-Aldrich, St. Louis, MO, cat. D2650), except for the platinum compounds which were prepared in saline (Quality Biological, Gaithersburg, MD, cat. 114-055-101), at 800-fold the tested concentration and stored at -70 degrees C prior to their use. All drugs and investigational agents were tested over a range starting from a high concentration at or near the clinical Cmax and decreasing in half-log increments. If the clinical Cmax for an agent had not been determined, the highest concentration tested was 10 microM, except for SN-38, which was tested at a high concentration of 1 microM.
Cell Culture. All cells were maintained in an incubator at 37 degrees C and 5% CO2 with 95% humidity. The PDC lines were cultured according to standard operating procedures established by the NCI PDMR (https://pdmr.cancer.gov). Table 3 of the manuscript, lists the cell lines along with the number of the three cell types plated to form the mct-spheroids and media for tumor cell growth. After thawing, all PDC lines, except 997537-175-T-J1-PDC and 415267-285-R-J2-PDC, were cultured in Matrigel-coated flasks prepared with a working solution of 1X Ham's F-12 nutrient mix, without supplementation (Thermo Fisher Scientific, cat. 11765054), 100 U/mL penicillin-streptomycin (Thermo Fisher Scientific, cat. 15140122), and 2.5% Matrigel (Corning Inc., Corning, NY, cat. 354248) for the first three passages. The two PDC lines 997537-175-T-J1-PDC and 415267-285-R-J2-PDC were cultured on uncoated flasks. The 857933-349-R-J2-PDC line was cultured in 6C/Colon 1B media containing advanced DMEM/F-12 (Thermo Fisher Scientific, cat. 12634028), 10 mM HEPES (Thermo Fisher Scientific, cat. 15630080), 1X GlutaMAX supplement (Thermo Fisher Scientific, cat. 35050061), 0.1 mg/mL primocin (InvivoGen, San Diego, CA, cat. ant-pm-2), 10% defined fetal bovine serum, heat inactivated (HyClone Laboratories Inc., Logan, UT, cat. SH30070.03HI), 50% L-WRN conditioned media (ATCC, cat. CRL-3276), 1.25 mM N-Acetyl-L-cysteine (Sigma-Aldrich, cat. A9165), 10 mM nicotinamide (Sigma-Aldrich, cat. N0636), 1X B-27 supplement (Thermo Fisher Scientific, cat. 17504044), 1X N-2 supplement (Thermo Fisher Scientific, cat. […]
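Further: spheroids exposed to drugs for one week before readout.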
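Wherever viability, T/C is given: percent viability relative to DMSO vehicle control wells set as 100%.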

Nc1ccn(C2OC(CO)C(O)C2(F)F)c(=O)n1 (configuration not stated) + COC1C(OC(N)=O)C(O)C(Oc2ccc3c(O)c(NC(=O)c4ccc(O)c(CC=C(C)C)c4)c(=O)oc3c2C)OC1(C)C gave an IC50 (second compound 0.0316 µM) of 1010 nM, an IC50 (second compound 0.1 µM) of 1600 nM and an IC50 (second compound 0.316 µM) of 470 nM. For the same compound, the IC50 (second compound 1 µM) was 924 nM, the IC50 (second compound 3.16 µM) was 874 nM and the IC50 (second compound 10 µM) was 463 nM. It also gave a viability, T/C (second compound 0.0316 µM, first compound 0.0316 µM) of 81.7%, a viability, T/C (second compound 0.0316 µM, first compound 0.1 µM) of 70.2% and a viability, T/C (second compound 0.0316 µM, first compound 0.316 µM) of 49.4%. For the same compound, the viability, T/C (second compound 0.0316 µM, first compound 1 µM) was 59.7%, the viability, T/C (second compound 0.0316 µM, first compound 3.16 µM) was 41.4% and the viability, T/C (second compound 0.0316 µM, first compound 10 µM) was 26.2%. For the same compound, the viability, T/C (second compound 0.1 µM, first compound 0.0316 µM) was 86.2%, the viability, T/C (second compound 0.1 µM, first compound 0.1 µM) was 67.3% and the viability, T/C (second compound 0.1 µM, first compound 0.316 µM) was 61.6%. The viability, T/C (second compound 0.1 µM, first compound 1 µM) was 55%, the viability, T/C (second compound 0.1 µM, first compound 3.16 µM) was 50.3% and the viability, T/C (second compound 0.1 µM, first compound 10 µM) was 26.3%. The viability, T/C (second compound 0.316 µM, first compound 0.0316 µM) was 75.8%, the viability, T/C (second compound 0.316 µM, first compound 0.1 µM) was 61.4% and the viability, T/C (second compound 0.316 µM, first compound 0.316 µM) was 47%. For the same compound, the viability, T/C (second compound 0.316 µM, first compound 1 µM) was 52.4%, the viability, T/C (second compound 0.316 µM, first compound 3.16 µM) was 36.8% and the viability, T/C (second compound 0.316 µM, first compound 10 µM) was 33.1%. It also gave a viability, T/C (second compound 1 µM, first compound 0.0316 µM) of 81.3%, a viability, T/C (second compound 1 µM, first compound 0.1 µM) of 70.7% and a viability, T/C (second compound 1 µM, first compound 0.316 µM) of 56.6%. The viability, T/C (second compound 1 µM, first compound 1 µM) was 45.6%, the viability, T/C (second compound 1 µM, first compound 3.16 µM) was 48.7% and the viability, T/C (second compound 1 µM, first compound 10 µM) was 28.2%. The viability, T/C (second compound 3.16 µM, first compound 0.0316 µM) was 79%, the viability, T/C (second compound 3.16 µM, first compound 0.1 µM) was 62.8% and the viability, T/C (second compound 3.16 µM, first compound 0.316 µM) was 55.8%. The viability, T/C (second compound 3.16 µM, first compound 1 µM) was 51.4%, the viability, T/C (second compound 3.16 µM, first compound 3.16 µM) was 45.7% and the viability, T/C (second compound 3.16 µM, first compound 10 µM) was 25%. It also gave a viability, T/C (second compound 10 µM, first compound 0.0316 µM) of 83.3%, a viability, T/C (second compound 10 µM, first compound 0.1 µM) of 73.8% and a viability, T/C (second compound 10 µM, first compound 0.316 µM) of 41.7%. For the same compound, the viability, T/C (second compound 10 µM, first compound 1 µM) was 46.9%, the viability, T/C (second compound 10 µM, first compound 3.16 µM) was 47.1% and the viability, T/C (second compound 10 µM, first compound 10 µM) was 28.2%.
